From patent US9920013B2, “2,5-dioxoimidazolidin-1-yl-3-urea derivatives as formyl peptide modulators” (Allergan, Inc., priority 2014, dated 2018)

Molecular target: T1, FPR2 (Homo sapiens, UniProt P25090)
T1 construct: expressed in transfected cells
T1 sequence (P25090 1-351): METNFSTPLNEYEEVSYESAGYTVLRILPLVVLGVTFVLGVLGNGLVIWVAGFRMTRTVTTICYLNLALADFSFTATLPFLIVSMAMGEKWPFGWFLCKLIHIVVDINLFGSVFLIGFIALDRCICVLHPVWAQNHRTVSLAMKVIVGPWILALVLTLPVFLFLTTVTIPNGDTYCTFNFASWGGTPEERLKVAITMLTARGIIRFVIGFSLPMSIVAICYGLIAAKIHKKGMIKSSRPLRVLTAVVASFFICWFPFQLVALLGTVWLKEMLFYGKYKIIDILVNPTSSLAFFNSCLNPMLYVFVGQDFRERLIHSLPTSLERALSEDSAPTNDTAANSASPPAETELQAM
Assay: FPR2 calcium activity assay on FLIPR Tetra in CHO-Gα16 cells stably expressing FPR2
Type: cell-based
Details: for EC50: compound-induced calcium activity, 0.61 to 10,000 nM
Experimental: CHO-Gα16 cells stably expressing FPR2 were cultured in F12 media (10% FBS, 1% PSA, 400 μg/ml geneticin and 50 μg/ml hygromycin). In general, the day before the experiment, 18,000 cells/well were plated in a 384-well clear bottom poly-D-lysine coated plate. The following day the screening compound-induced calcium activity was assayed on a FLIPR^Tetra. The drug plates were prepared in 384-well microplates using EP3 and MultiPROBE robotic liquid handling systems. Compounds were tested at concentrations ranging from 0.61 to 10,000 nM. Results are expressed as EC50 (nM) and % efficacy values.

CC(=O)NCCNC(=O)CC1(C(C)C)NC(=O)N(NC(=O)Nc2ccc(Br)cc2)C1=O (stereo not drawn) [Compound 1, N-[2-(Acetylamino)ethyl]-2-[1-{[(4-Bromophenyl)carbamoyl]amino}-2,5-dioxo-4-(propan-2-yl)imidazolidin-4-yl]acetamide]
FPR2 Gα16-CHO (%eff): (0.94)
EC50: 6 nM

CC(=O)OCCNC(=O)CC1(C(C)C)NC(=O)N(NC(=O)Nc2ccc(Br)cc2F)C1=O (stereo not drawn) [Compound 2, 2-({[1-{[(4-Bromo-2-Fluorophenyl)carbamoyl]amino}-2,5-dioxo-4-(propan-2-yl)imidazolidin-4-yl]acetyl}amino)ethyl acetate]
FPR2 Gα16-CHO (%eff): (0.94)
EC50: 4 nM

CC(=O)OCCNC(=O)CC1(C(C)C)NC(=O)N(NC(=O)Nc2ccc(Br)cc2)C1=O (stereo not drawn) [Compound 3, 2-({[1-{[(4-Bromophenyl)carbamoyl]amino}-2,5-Dioxo-4-(propan-2-yl)imidazolidin-4-yl]acetyl}amino)ethyl acetate]
FPR2 Gα16-CHO (%eff): (0.97)
EC50: 10 nM
